# Measurements taken from patent US7605175B2, “Inhibitors of cyclin-dependent kinases, compositions and uses related thereto” (GPC Biotech AG, priority 2001, dated 2009).
# pIC50: −log10 of the molar value. Read-outs that look alike come from different tables or passages of the source.
# Assays:
# [1] = target: T1, Cdk2/cyclin E (Homo sapiens, UniProt P24941); test: Biochemical kinase assay Cdk2/cyclin E; details: Table 6
# T1 construct: made in house; host or cells: Sf9 insect cells
# How it was run: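 Sf9-expressed Cdk/cyclin heterodimers phosphorylate GST-Rb (residues 379–928, 40 μg) with 50 μM ATP plus [γ-33P]ATP, pH 7.5, 10% DMSO, 15 min at 30 °C. Compounds 1 nM–10 μM. 33P captured on glutathione-sepharose and scintillation-counted; activity relative to DMSO control after EDTA-background subtraction.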
# [2] = tested on: HCT-116 cells; test: Cell cycle analysis with propidium iodide (PI FACS); format: cell-based, human; details: HCT-116, 24, 48 and 72 hours
# Procedure: The percentage of cells in the G1, S and G2/M phases of the cell cycle was determined by staining DNA with propidium iodide and quantifying the number of cells with a 2N or 4N DNA complement by flow cytometry. Alterations in the distribution of cells across the cell cycle in response to exposure to the Cdk inhibitors was evaluated in this marmer.
# 3 sets of HCT-116 cells (100,000 cells/set) were cultured in the presence of a test compound in T-25 flasks according to Table 1 below. Analysis was performed at 24, 48 and 72 hours. Adherent cells were collected by trypsinization, combined with floating cells in Falcon 12×75 flow cytometric tubes, and harvested by centrifugation. The media was decanted from the cell pellet, 100 μl of PI stain was added and the cells were incubated at 37° C. for 20-25 minutes. The cell count was preferably no greater than 2×10^6-4×10^6/ml. An equal volume (100 μl) of PI salt was then added to the cells, which were then incubated at 4° C. for 1-2 hours. The stained cells were analyzed on a Becton Dickinson FACScan flow cytometer. Samples were protected from light.
# [3] = tested on: HCT-116 cells; test: BrdU incorporation assay; format: cell-based; details: Homo sapiens, read-out: Brd U, concentration that inhibits BrdU incorporation by 50%
# How it was run: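 HCT-116 cells were exposed to compound, then analysed at 24, 48 and 72 h; 10 μM BrdU (final) was added for 16-18 h at 37° C. After fixation, permeabilisation and DNase treatment, BrdU incorporation was read by flow cytometry; values are compound concentrations (μM) giving 50% inhibition.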
# [4] = tested on: adriamycin resistant cell line (ADR-res); test: NCI panel (SRB), adriamycin resistant cell line; format: cell-based; details: Homo sapiens
# From the text: The evaluation of compounds at the National Cancer Institute in their panel of 60 cell lines provides a wealth of information regarding efficacy in a wide range of tumor types and genetic backgrounds. Included within this panel are cell lines derived from leukemia, melanoma and cancers of the lung, colon, brain, ovary, breast, prostate and kidney. Use of this panel provides a measure of the efficacy of compounds in cells with alterations in many genes that are associated with neoplastic transformation including p53 and Her2/Neu as well as those involved in metabolism and those which confer multi-drug resistance. The data generated in these cell lines with the protocol described below can be used to evaluate the activity of compounds.
# Cells were grown in RPMI-1640 10% FCS and plated in 96 well micro-titer plates at densities ranging from 5,000 to 40,000 cells/well. The plates were incubated for 24 hours at 37° C., 5% CO2 for 24 hours. […]
# The effect of the compound on cellular viability was determined with the Sulforhodamine B (SRB) assay, which measures total protein. […] The bound stain was solubilized with 10 mM trizma base and the absorbance was read on a plate reader at […].
Structure (SMILES),pIC50 [1],Effect on cell cycle distribution (PI staining) [2],"pIC50 ([3]; HCT-116, 24 h)","pIC50 ([3]; HCT-116, 48 h)",pIC50 [4]
CC(C)N1CCN(C(=O)COc2ccc(-c3[nH]nc4c3C(=O)c3c(NC(=O)NN5CCOCC5)cccc3-4)cc2)CC1.Cl [Compound A37],> 7.00,"cells are terminally arrested in G1 and G2, with evidence of apoptosis and endo-reduplication",,,
"COCCN1CCN(Cc2ccc(-c3[nH]nc4c3C(=O)c3c(NC(=O)NN5CCOCC5)cccc3-4)cc2)CC1.Cl.Cl [Compound B16, N-[3-(4-{[4-(2-methoxyethyl)piperazinyl]methyl}phenyl)-4-oxoindeno[2,3-d]pyrazol-5-yl](morpholin-4-ylamino)carboxamide dihydrochloride]",> 8.00,Analogous results,,,
CC(C)c1nn(-c2c(Cl)cccc2Cl)c2nc(Cc3ccc(O)c(CN4CCN(C(C)C)CC4)c3)[nH]c(=O)c12 [Compound C],,,> 7.00,> 7.00,> 7.00
